The text below walks through data of patent US7928078B2, “Conjugates of immune cell specific macrolide compounds with anti-inflammatory compounds for improved cellular targeting of anti-inflammatory therapy” (GlaxoSmithKline Istrazivacki Centar Zagreb D.O.O., priority 2001, dated 2011).

In data set [1] the test system is interleukin-2 production induced by the stimulation via CD3 receptor. The data set can be described thus: Assay of inhibition of interleukin-2 production. In kind it is cell-based, mouse. The protocol: Assay of Inhibition of Interleukin-2 Production
Onto a 96-well plate (Nunc) 15 ng of 2C11 antibodies (Pharmingen) per well were added and left to adsorb in PBS buffer (pH=7.4) overnight at 4° C. PBS was removed, the plate was washed with RPMI medium and then 50,000 cells per well were added and incubated in the medium with and without a dilution of the test compounds. The concentration of IL-2 in the supernatant was measured by ELISA specific for mouse IL-2 (R&D Systems).

Data set [2] relates to mouse T-cell hybridoma 13. As to the kind of experiment: Assay of inhibition of mouse T-cell hybridoma 13 proliferation as a result of apoptose induction. In kind it is cell-based. The following applies: [3H] thymidine incorporation. As for the experimental part:
Assay of Inhibition of Mouse T-Cell Hybridoma 13 Proliferation as a Result of Apoptose Induction
In a 96-well plate triplicates of test steroid dilution in RPMI medium (Immunoloski zavod) with […] were performed. To the solutions of compounds 20 000 cells per well were added and incubated overnight at 37° C. in an atmosphere with 5% CO2, then 1 μCi of [^3H] thymidine (Pharmacia) was added and it was incubated for additional 3 hours. The cells were harvested by sucking over GF/C filter (Packard). Onto each well 30 μl of Microscynt O scintillation liquid (Packard) were added and the incorporated radioactivity was measured on a β-scintillation counter (Packard). The specifity of apoptose induction by glucocorticoids was proven by antagonising the proliferation inhibition with mifepristone (Sigma).
(Incorporation of labelled thymidine or its analogues reports DNA synthesis.)

Data set [3] deals with T1, alpha isoform of human glucocorticoid receptor (Homo sapiens, UniProt P04150).
T1 construct: expressed in transfected cells; host or cells: COS-1 cells, transient transfection with pcDNA3.1 hygro(+) carrying the GR alpha cDNA
T1 sequence (P04150 1-777): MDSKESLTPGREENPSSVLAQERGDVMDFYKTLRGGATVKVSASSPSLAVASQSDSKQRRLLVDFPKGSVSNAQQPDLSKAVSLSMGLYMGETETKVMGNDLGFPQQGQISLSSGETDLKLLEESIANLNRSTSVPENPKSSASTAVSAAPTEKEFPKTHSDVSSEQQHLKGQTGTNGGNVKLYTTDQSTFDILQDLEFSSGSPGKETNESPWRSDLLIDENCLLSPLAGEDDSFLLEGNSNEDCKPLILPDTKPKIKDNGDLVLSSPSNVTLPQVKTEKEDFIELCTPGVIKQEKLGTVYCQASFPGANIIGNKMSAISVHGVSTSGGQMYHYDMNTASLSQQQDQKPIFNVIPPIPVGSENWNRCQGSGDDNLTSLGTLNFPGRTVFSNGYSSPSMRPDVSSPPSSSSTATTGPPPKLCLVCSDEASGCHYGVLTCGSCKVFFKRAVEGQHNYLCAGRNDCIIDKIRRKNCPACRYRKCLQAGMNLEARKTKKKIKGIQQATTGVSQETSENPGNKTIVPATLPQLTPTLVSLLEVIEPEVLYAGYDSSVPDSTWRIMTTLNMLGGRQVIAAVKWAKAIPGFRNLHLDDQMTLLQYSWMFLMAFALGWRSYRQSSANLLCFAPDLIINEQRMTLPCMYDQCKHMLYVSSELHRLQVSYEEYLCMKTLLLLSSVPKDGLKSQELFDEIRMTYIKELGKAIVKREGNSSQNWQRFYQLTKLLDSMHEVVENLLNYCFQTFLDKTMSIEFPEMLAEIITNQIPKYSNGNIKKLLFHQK
The data set can be described thus: Assay of binding to the human glucocorticoid receptor ([3H] dexamethasone competition in transfected COS-1 cells). Conditions: 24 nM [3H] dexamethasone. The text has this:
Assay of Binding to the Human Glucocorticoid Receptor
The gene for alpha isoform of human glucocorticoid receptor was cloned by reverse polymerase chain reaction. The total RNA was isolated from human peripheral blood lymphocites according to the instructions of the manufacturer (Qiagen), transcripted into cDNA with AMV reverse transcriptase (Roche) and the gene was multiplied by specific primers
The obtained reaction product was cloned into XhoI/BamHI site of Bluescript KS plasmid (Stratagene), subjected to sequencing by dideoxy fluorescent method with M13 and M13 rev primers (Mycrosynth) and then it was cloned into XhoI/BamHI site of pcDNA3.1 hygro(+)plasmid (Invitrogen). 1×10^5 COS-1 cells were seeded onto a 12-well plate (Falcon) in DMEM medium (Life Technologies) with 10% FBS (Biowhitaker) and cultivated up to a 70% confluence at 37° C. in an atmosphere with 5% CO2. The medium was removed and 1 μg of DNA, 7 μl of PLUS reagent and 2 μl of Lipofectamine (Life Technologies) in 500 μl DMEM were added per well. The cells were incubated at 37° C. in an atmosphere with 5% CO2 and after 5 hours the same volume of 20% FBS/DMEM was added. After 24 hours the medium was completely changed. 48 hours after the transfection, the test compounds in different concentrations and 24 nM [^3H] dexamethasone (Pharmacia) in DMEM medium were added. The cells were incubated for 90 minutes at 37° C. in an atmosphere with 5% CO2, washed three times with PBS buffer (Sigma), cooled to 4° C. (pH=7.4) and then lyzed in Tris buffer (pH=8.0) (Sigma) with 0.2% SDS (Sigma). After the addition of UltimaGold XR (Packard) scintillation liquid, the residual radioactivity was read in a Tricarb (Packard) β-scintillation counter.

In data set [4] the test system is OVA-induced lung eosinophilia. The data set can be described thus: Model of lung eosinophilia in mice. Conditions: daily i.n. or i.p., different doses, 48 hours after OVA, t-test, p<0.05. Type of data set: in vivo, Balb/C mice. As for the experimental part:
Model of Lung Eosinophilia in Mice
Male Balb/C mice with a body weight of 20-25 g were randomly divided into groups. They were sensibilized by an i.p. injection of ovalbumine (OVA, Sigma) on zero day and on the fourteenth day. On the twentieth day the mice were subjected to a provocative test by i.n. application of OVA (positive control or test groups) or PBS (negative control). 48 hours after i.n. application of OVA, the animals were anesthetized and the lungs were rinsed with 1 ml of PBS. The cells were separated on Cytospin 3 cytocentrifuge (Shandon). The cells were stained in Diff-Quick (Dade) and the percentage of eozinophiles was determined by differential counting of at least 100 cells.
Fluticasone and beclomethasone were used as standard substances under positive and negative control.
The compounds were administered daily i.n. or i.p. in different doses 2 days before provocative test and up to the completion of the test.

Data set [5] relates to CHO and COS-1 cells. As to the kind of experiment: Assay of steroid introduction into cells. The following applies: 1 μM radioactive compound, 90 minutes, 37° C. Type of data set: cell-based. As for the experimental part:
Assay of Steroid Introduction into Cells
CHO and COS-1 cells were cultivated up to confluence in 75 cm^2 flasks in Hamm F 12 medium (Life Technologies) with 10% FBS (CHO) or in DMEM medium with 10% FBS (COS-1). 1 μM of radioactive compound 10 with total 2 μCi activity was added onto the cells and it was incubated for 90 minutes at 37° C. in an atmosphere with 5% CO2. The cell supernatant was collected, the cells were lysed and then the radioactivity in the cell lysate as well as in the cell supernatant was read.

The nature of data set [6]: Influence of compounds on the thymus weight. Conditions: rats, s.c. implanted impregnated pellets, 7 days.
Excerpt: Influence of Compounds on the Thymus Weight
Male Sprague Dawley rats with a body weight of 200 g were randomly divided into groups of six animals. To anaesthetized animals sterilized weighed pellets of filter paper were implanted s.c. dorsally. The pellets in the control group were impregnated with acetone, whereas in the test groups they were impregnated either with the standard (prednisolone, Sigma) or with the compound 10. After 7 days the animals were put to sleep and their thymuses were isolated and weighed. The systemic effects were estimated by comparing the thymus weight in the test and control groups.

In general, melting point refers to the temperature, or range, at which the solid turns liquid. Compound `CC[C@H]1OC(=O)[C@H](C)[C@@H](O[C@@H]2C[C@](C)(OC)[C@H](O)C(C)O2)[C@H](C)[C@@H](O[C@@H]2O[C@H](C)C[C@@H](N(C)C)[C@H]2O)[C@](C)(O)C[C@@H](C)CN(CCCNC(=O)[C@@]2(O)[C@H](C)CC3C4C[C@H](F)C5=CC(=O)C=C[C@]5(C)[C@@]4(F)[C@@H](O)C[C@@]32C)[C@H](C)[C@@H](O)[C@]1(C)O` (stereo partly shown) [Compound 9] yielded a melting point of 169 °C. Moreover, the “inhibition of interleukin-2 production” value in data set [1] is “demonstrate an inhibition”. The “inhibition of cell hybridoma 13 proliferation” value in data set [2] was “demonstrated an inhibition”. In data set [3], the “competition with radioactive dexamethasone in the binding site on the glucocorticoid receptor” value (“competition” below) is reported as “able to compete with radioactive dexamethasone”. Besides, the “number of eosinophiles in the lung rinse with regard to the positive control” value (shortened to “number of eosinophiles in the lung rinse”) in data set [4] was “statistically significantly (t-test, p<0.05) reduced”.
In turn, `CC[C@H]1OC(=O)[C@H](C)[C@@H](O[C@@H]2C[C@](C)(OC)[C@H](O)C(C)O2)[C@H](C)[C@@H](O[C@@H]2O[C@H](C)C[C@@H](N(C)C)[C@H]2O)[C@](C)(O)C[C@@H](C)CN(CCCNC(=O)[C@@]2(O)[C@H](C)CC3C4CCC5=CC(=O)C=C[C@]5(C)[C@@]4(F)[C@@H](O)C[C@@]32C)[C@H](C)[C@@H](O)[C@]1(C)O` (stereo partly shown) [Compound 10] returned a melting point of 170 to 175 °C. Besides, the “accumulation in the cells versus cell supernatant” value in data set [5] is listed as “able to accumulate in the cells in a greater concentration than in the supernatant”. Also, the “inhibition of interleukin-2 production” value in data set [1] is “demonstrate an inhibition”. For the same compound, the “inhibition of cell hybridoma 13 proliferation” value in data set [2] is reported as “demonstrated an inhibition”. The “competition” value in data set [3] was “able to compete with radioactive dexamethasone”. For the same compound, in data set [4], the “number of eosinophiles in the lung rinse” value is “statistically significantly (t-test, p<0.05) reduced”.
With `CC[C@H]1OC(=O)[C@H](C)[C@@H](O[C@@H]2C[C@](C)(OC)[C@H](O)C(C)O2)[C@H](C)[C@@H](O[C@@H]2O[C@H](C)C[C@@H](N(C)C)[C@H]2O)[C@](C)(O)C[C@@H](C)CN(CCCNC(=O)[C@@]2(O)CCC3C4CCC5=CC(=O)CC[C@]5(C)C4[C@@H](O)C[C@@]32C)[C@H](C)[C@@H](O)[C@]1(C)O` (stereo partly shown) [Compound 8], the melting point was 144 °C. Also, the “inhibition of cell hybridoma 13 proliferation” value in data set [2] is reported as “demonstrated an inhibition”. Moreover, in data set [4], the “number of eosinophiles in the lung rinse” value was “statistically significantly (t-test, p<0.05) reduced”.
Compound `CC[C@H]1OC(=O)[C@H](C)[C@@H](O)[C@H](C)[C@@H](O[C@@H]2O[C@H](C)C[C@@H](N(C)C)[C@H]2OC(=O)CCCCOC(=O)[C@@]2(O)[C@H](C)CC3C4C[C@H](F)C5=CC(=O)C=C[C@]5(C)[C@@]4(Cl)[C@@H](O)C[C@@]32C)[C@](C)(O)C[C@@H](C)CN(C)[C@H](C)[C@@H](O)[C@]1(C)O` (stereo partly shown) [Compound 27] came in with a melting point of 130 to 132 °C. The “inhibition of interleukin-2 production” value in data set [1] was “demonstrate an inhibition”. In data set [2], the “inhibition of cell hybridoma 13 proliferation” value is reported as “demonstrated an inhibition”. Besides, the “competition” value in data set [3] was “able to compete with radioactive dexamethasone”.
For `C[C@]12C=CC(=O)C=C1CC[C@@H]1[C@@H]2[C@@H](O)C[C@@]2(C)[C@H]1CC[C@]2(O)C(=O)CO` [standard, prednisolone], in data set [6], the “effect on thymus weights with regard to the control” value is reported as “statistically significantly reduced the thymus weights”.
